Data: PubChem BioAssay (NCI)
“And” between values parts separate entries of the source, which are not always exact repeats. Equal values may be shown once.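 Step 1: Grow cells in 96-well plates. Step 2: Expose to compound for 48 hours at 5 concentrations. Step 3: Interpolate endpoints linearly; if unreached, use highest concentration. Here, GI50 denotes the concentration required for 50% inhibition of growth. TGI: concentration producing complete growth inhibition.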

Key:
Test in all cases: NCI tumour cell line growth inhibition, 48 h
HL-60(TB) leukemia = tested on: HL-60(TB) leukemia
HCT-15 colon = tested on: HCT-15 colon
A498 renal = tested on: A498 renal
UO-31 renal = tested on: UO-31 renal
SNB-19 CNS = tested on: SNB-19 CNS
CCRF-CEM leukemia = tested on: CCRF-CEM leukemia
SF-539 CNS = tested on: SF-539 CNS
NCI-H460 lung = tested on: NCI-H460 lung
A549 NSCLC = tested on: A549 NSCLC
SK-MEL-5 melanoma = tested on: SK-MEL-5 melanoma

| Compound | GI50 (HL-60(TB) leukemia) | TGI (HL-60(TB) leukemia) | GI50 (HCT-15 colon) | TGI (HCT-15 colon) [µM] | GI50 (A498 renal) | TGI (A498 renal) [µM] | GI50 (UO-31 renal) [µM] | TGI (UO-31 renal) [µM] | GI50 (SNB-19 CNS) | TGI (SNB-19 CNS) [µM] | GI50 (CCRF-CEM leukemia) | TGI (CCRF-CEM leukemia) [µM] | GI50 (SF-539 CNS) | TGI (SF-539 CNS) | GI50 (NCI-H460 lung) | TGI (NCI-H460 lung) [µM] | GI50 (A549 NSCLC) [µM] | TGI (A549 NSCLC) [µM] | GI50 (SK-MEL-5 melanoma) | TGI (SK-MEL-5 melanoma) |
| --- | --- | --- | --- | --- | --- | --- | --- | --- | --- | --- | --- | --- | --- | --- | --- | --- | --- | --- | --- | --- |
| O=C(NCCOCCOCCOCCNC(=O)c1cc2c(o1)C(=O)c1ccccc1C2=O)NC12CC3CC(CC(C3)C1)C2 | 2.16 µM | 6.46 µM | 1.58 µM | 3.68 | 1.69 µM | 3.3 | 1.69 | 3.77 | 2.06 µM | 8.03 | 3.23 µM | > 100 | 1.59 µM | 3.16 µM | 1.19 µM | 2.93 | 0.517 | 2.34 | 0.303 µM | 1.02 µM |
| CC(=O)NNc1nc(C)c(C(=O)NNC(=O)C(=O)Nc2c([N+](=O)[O-])ccc(C)c2C)s1 |  | > 100 µM |  | > 100 |  | > 100 |  | > 100 |  | > 100 |  | > 100 |  | > 100 µM |  | > 100 |  | > 100 |  | > 100 µM |
| CC[C@H](C)[C@H](NC(=O)[C@H]1CCCCN1C)C(=O)N(C)[C@H](C[C@@H](OC(C)=O)c1cccc(C(=O)N[C@@H](Cc2ccccc2)C[C@H](C)C(=O)O)n1)C(C)C | 0.00111 µM and < 0.0025 µM | 0.00592 µM and < 0.0025 µM | 0.0064 µM and 0.0025 µM | > 25 | 0.00184 µM and < 0.0025 µM |  |  | > 25 | 0.00138 µM and 0.0025 µM | > 25 | 0.000818 µM and 0.0025 µM | > 25 | 0.00148 µM and < 0.0025 µM | 0.00742 µM and < 0.0025 µM | 0.00278 µM and 0.0025 µM | > 25 |  | > 25 | 0.000482 µM and 0.0025 µM | 0.0193 µM and 0.00279 µM |
| Cn1c(=O)c(Oc2ccc(F)cc2F)cc2cnc(N[C@@H]3CCOC3)nc21 | > 25 µM | > 25 µM | > 25 µM | > 25 | > 20.4 µM | > 25 | > 11 | > 16.2 | > 25 µM | > 25 | > 25 µM | > 25 | > 25 µM | > 25 µM | > 25 µM | > 25 | > 25 | > 25 | > 25 µM | > 25 µM |
| COc1ccc(-c2cn(-c3ccc(OC)c(OC)c3)c(=O)[nH]2)cc1 | 36.9 µM | > 100 µM | > 100 µM | > 100 | > 100 µM | > 100 | > 100 | > 100 | > 100 µM | > 100 | > 100 µM | > 100 | > 100 µM | > 100 µM | > 100 µM | > 100 | > 100 | > 100 | 63.3 µM | > 100 µM |
| C=C1C(=O)O[C@H]2[C@H]1CC/C(COC(=O)/C=C\C(=O)NCc1ccc(Cn3c(=O)sn(CCI)c3=O)cc1)=C\CC[C@@]1(C)O[C@@H]21 | 1.59 µM | 5.41 µM | 2.1 µM | 5.42 | 13.9 µM | 27 | 2.56 | 8.47 | 11.4 µM | 24.7 | 1.61 µM | 6.19 | 3.36 µM | 9.51 µM | 15.5 µM | 37.9 | 14.8 | 30.5 | 12.8 µM | 25.7 µM |
| N#CC1(C#N)C=CC(=C2OCC3CCCN23)C=C1 (configuration not stated) |  | > 100 µM |  | > 100 |  | > 100 |  | > 100 |  | > 100 |  | > 100 |  | > 100 µM |  | > 100 |  | > 100 |  | > 100 µM |
